Results published in US20160030628A1, “TREATMENT FOR BILE LEAKAGE” (3-D MATRIX, LTD, priority 2013, published 2016).

Legend:
[1] = tested on: bile leakage from punctured gall bladder; test: bile leakage occlusion in a porcine gall bladder needle puncture model; type: in vivo; settings: 2.5% w/v RADA16
Protocol: (§1) The objective of this study was to evaluate a self-assembling peptide solution (RADA16 in the form of PuraMatrix™ peptide hydrogel by 3-D Matrix, LTD.) as a bile leakage occlusion material in a porcine model. A histopathology assessment was also performed.
On the day of testing, an animal was sedated and prepared for surgery. A bile leakage model was prepared by puncturing needle punctures, using a 20G injection needle in the gall bladder of the test subject, as shown in FIG. 1A.
Subsequent to applying the self-assembling peptide solution, a bile leakage occlusion was confirmed at 1 minute, 20 seconds, as shown in FIG. 1D.
It was determined that 0.5 mL of the peptide solution was used to achieve the bile leakage occlusion of the needle puncture in the gallbladder.

[2] = tested on: gallbladder bile leakage occlusion site; test: histopathology assessment (H&E) of the bile leakage occlusion site; type: in vivo, porcine; settings: gallbladder fixed in formalin after occlusion with 2.5% w/v RADA16
Protocol: as §1
After bile leakage occlusion was achieved, the gallbladder was fixed in formalin and the H&E-stained pathological specimen was made at the bile leakage occlusion site.

Substance: Arg-Ala-Asp-Ala-Arg-Ala-Asp-Ala-Arg-Ala-Asp-Ala-Arg-Ala-Asp-Ala (RADARADARADARADA) [RADA16, self-assembling peptide; 1 and 2.5 w/v percent aqueous solutions available as PuraMatrix peptide hydrogel by 3-D Matrix]
- volume of peptide solution used to achieve the bile leakage occlusion of the needle puncture ([1]; 20G needle puncture in the gallbladder, porcine model): 0.5 mL
- secondary bile leakage after excess hydrogel was irrigated from the site ([1]; checked at 3 minutes, porcine gall bladder puncture): absence of a secondary bile leakage was confirmed
- histopathological finding at bile leakage occlusion site (H&E-stained specimen, FIG. 2) [2]: occluded the bile leakage site
